Experimental data: patent US12122785B2, “Substituted pyridines, pyridazines, pyrimidines, and 1,2,4-triazines as TYK2 inhibitors” (Sudo Biosciences Limited, priority 2021, dated 2024)

Legend:
Format in all cases: cell-based
[1] = test system: TYK2 pseudokinase (JH2); IL-23-stimulated HEK-Blue IL-23 cells; assay: HEK-Blue IL-23 reporter assay (STAT3-inducible SEAP) for profiling TYK2 pseudokinase (JH2) inhibition; details: 10 ng/mL human recombinant IL-23, SEAP readout, read-out: IL23 (TYK2 inhibitory activity, IC50)
Procedure: (§1) Example B-1: HEK-Blue™ IL-23 and IFNα/β Reporter Assays for Profiling TYK2 Pseudokinase (JH2) Inhibition
(§2) HEK-Blue™ IL-23 and IFNα/β cells with a stably-integrated cytokine receptor and STAT3 or STAT1 express STAT-inducible secreted embryonic alkaline phosphatase (SEAP) reporter gene upon cytokine stimulation. These cells are plated in DMEM (Gibco) containing 10% heat-inactivated FBS (Gibco) and 100 U/mL PenStrep (Gibco) at 37° C. under 5% CO2 conditions for 20-22 hours. The cells are then pretreated with serially diluted test compounds for 60 min prior to stimulation with either 10 ng/mL human recombinant IL-23 (Miltenyl Biotech) or 1 ng/mL human recombinant IFNα (InvivoGen) for 22-24 hours for IL-23 or 16-18 h for IFNα. SEAP induction is measured using the QUANTI Blue™ Solution (InvivoGen) according to the manufacturer's instructions.

[2] = test system: TYK2 pseudokinase (JH2); IFNα-stimulated HEK-Blue IFNα/β cells; assay: HEK-Blue IFNα/β reporter assay (STAT1-inducible SEAP) for profiling TYK2 pseudokinase (JH2) inhibition; details: 1 ng/mL human recombinant IFNα, SEAP readout, read-out: IFNα (TYK2 inhibitory activity, IC50)
Procedure: as §1, §2

[3] = test system: IL-2-stimulated HEK-Blue IL-2 reporter cells; assay: HEK-Blue IL-2 reporter assay (STAT5-inducible SEAP) for determining selectivity; details: 4 ng/mL human recombinant IL-2, 24 hours
Procedure: (§3) Example B-3: HEK-Blue™ IL-2 and IFNγ Reporter Assays for Determining Selectivity
(§4) HEK-Blue™ IL-2 and IFNγ reporter cells with a stably-integrated cytokine receptor and STAT5 or STAT1 express STAT-inducible secreted embryonic alkaline phosphatase (SEAP) reporter gene upon cytokine stimulation. These cells were plated in DMEM (Gibco) containing 10% heat-inactivated FBS (Gibco) and 100 U/mL PenStrep (Gibco) at 37° C. under 5% CO2 conditions for 20-22 hours. The cells were then pretreated with serially diluted test compounds for 60 min prior to stimulation with either 4 ng/mL human recombinant IL-2 (Miltenyl Biotech) or 50 ng/mL human recombinant IFNγ (InvivoGen) for 24 hours. SEAP induction was measured using the QUANTI-Blue™ Solution (InvivoGen) according to the manufacturer's instructions.

[4] = test system: IFNγ-stimulated HEK-Blue IFNγ reporter cells; assay: HEK-Blue IFNγ reporter assay (STAT1-inducible SEAP) for determining selectivity; details: 50 ng/mL human recombinant IFNγ, 24 hours, read-out: IFN-γ SEAP selectivity assay IC50
Procedure: as §3, §4

Compound	IC50 [1]	IC50 [2]	IC50 [3]	IC50 [4]
[2H]C([2H])([2H])NC(=O)c1nnc(NC(=O)NC)cc1Nc1nccc2c1N(C)C([2H])([2H])c1cn(C)nc1-2 [Compound 74, 4-((2,5-dimethyl-4,5-dihydro-2H-pyrazolo[4,3-c][1,7]naphthyridin-6-yl-4,4-d2)amino)-N-(methyl-d3)-6-(3-methylureido)pyridazine-3-carboxamide]	< 30 nM	< 30 nM	> 1000 nM	30 to 300 nM
[2H]C([2H])([2H])NC(=O)c1cnc(NC(=O)C2CC2)cc1Nc1cccc2c1N(C)C([2H])([2H])c1cc(C)nn1-2 [Compound 57, 6-(cyclopropanecarboxamido)-4-((2,5-dimethyl-4,5-dihydropyrazolo[1,5-a]quinoxalin-6-yl-4,4-d2)amino)-N-(methyl-d3)nicotinamide]	< 30 nM	< 30 nM	> 1000 nM	30 to 300 nM
[2H]C([2H])([2H])NC(=O)c1cnc(NC(=O)C2CC2)cc1Nc1cccc2c1N(C)C([2H])([2H])c1ccnn1-2 [Compound 59, 6-(cyclopropanecarboxamido)-N-(methyl-d3)-4-((5-methyl-4,5-dihydropyrazolo[1,5-a]quinoxalin-6-yl-4,4-d2)amino)nicotinamide]	< 30 nM	< 30 nM	> 1000 nM	30 to 300 nM
[2H]C([2H])([2H])NC(=O)c1nnc(NC(=O)C2CC2)cc1Nc1cccc2c1N(C)C([2H])([2H])c1cc(C)nn1-2 [Compound 56, 6-(cyclopropanecarboxamido)-4-((2,5-dimethyl-4,5-dihydropyrazolo[1,5-a]quinoxalin-6-yl-4,4-d2)amino)-N-(methyl-d3)pyridazine-3-carboxamide]	< 30 nM	< 30 nM	> 1000 nM	30 to 300 nM
[2H]C([2H])([2H])NC(=O)c1cnc(NC(=O)C2CC2)cc1Nc1nccc2c1N(C)C([2H])([2H])c1cn(C)nc1-2 [Compound 77, 6-(cyclopropanecarboxamido)-4-((2,5-dimethyl-4,5-dihydro-2H-pyrazolo[4,3-c][1,7]naphthyridin-6-yl-4,4-d2)amino)-N-(methyl-d3)nicotinamide]	< 30 nM	< 30 nM	> 1000 nM	300 to 1000 nM
[2H]C([2H])([2H])NC(=O)c1nnc(NC(=O)C2CC2)cc1Nc1nccc2c1N(C)C([2H])([2H])c1cc(C)nn1-2 [Compound 73, 6-(cyclopropanecarboxamido)-4-((2,5-dimethyl-4,5-dihydropyrazolo[1,5-a]pyrido[3,4-e]pyrazin-6-yl-4,4-d2)amino)-N-(methyl-d3)pyridazine-3-carboxamide]	< 30 nM	< 30 nM	> 1000 nM	30 to 300 nM
CNC(=O)c1nnc(Nc2ccc(F)cn2)cc1Nc1cccc2c1OCc1cn(C3COC3)nc1-2 [Compound 3, 6-[(5-fluoropyridin-2-yl)amino]-N-methyl-4-{[2-(oxetan-3-yl)-2H,4H-chromeno[4,3-c]pyrazol-6-yl]amino}pyridazine-3-carboxamide]	30 to 300 nM	> 1000 nM	300 to 1000 nM	300 to 1000 nM
CNC(=O)c1nnc(Nc2cc(C)nc(C)n2)cc1Nc1cccc2c1N(C)Cc1cn(C)nc1-2 [Compound 34, 4-((2,5-dimethyl-4,5-dihydro-2H-pyrazolo[4,3-c]quinolin-6-yl)amino)-6-((2,6-dimethylpyrimidin-4-yl)amino)-N-methylpyridazine-3-carboxamide]	< 30 nM	< 30 nM	30 to 300 nM	30 to 300 nM
[2H]C([2H])([2H])NC(=O)c1nnc(NC(=O)N(C)C)cc1Nc1nccc2c1N(C)C([2H])([2H])c1cn(C)nc1-2 [Compound 75, 4-((2,5-dimethyl-4,5-dihydro-2H-pyrazolo[4,3-c][1,7]naphthyridin-6-yl-4,4-d2)amino)-6-(3,3-dimethylureido)-N-(methyl-d3)pyridazine-3-carboxamide]	< 30 nM	30 to 300 nM	> 1000 nM	> 1000 nM
